Assay: xn = mol fraction of the nth substance listed
Conditions: 298.15 K, 101 kPa

CC(=O)[O-].CC[NH3+] + O
Conditions	electrical conductivity [S/m]
x1 = 0.003	0.782
x1 = 0.0103	1.89
x2 = 0	0.222
x2 = 0.2027	0.452
x2 = 0.3481	0.745
x2 = 0.7999	2.48
x2 = 0.8502	2.75
x2 = 0.9436	3.1
x2 = 0.9502	3.11
x2 = 0.96	3.08
x2 = 0.9685	2.9
x2 = 0.9799	2.65

Source: a compilation of properties of binary mixtures (doi:10.1016/j.molliq.2012.11.030)
